Experimental data as given in ChEMBL document CHEMBL1143125, “DNA cleavage by novel copper (II) complex and the role of beta-cyclodextrin in promoting cleavage” (Bioorg Med Chem, 2008).

Tests used:
[1] = system: Escherichia coli; assay: Induction of Escherichia coli pUC19 DNA cleavage assessed as non-cleaved DNA level at 0.714 mM after 12 hrs
[2] = system: DNA; assay: Binding affinity to calf thymus DNA assessed by fluorescence quenching assay; assay type: nucleic-acid assay; conditions: Bos taurus

Row | Activity [1] | K [2] | SMILES
1 | 6.3% | – | OC[C@H]1O[C@@H]2O[C@H]3[C@H](O)[C@@H](O)[C@@H](O[C@H]4[C@H](O)[C@@H](O)[C@@H](O[C@H]5[C@H](O)[C@@H](O)[C@@H](O[C@H]6[C@H](O)[C@@H](O)[C@@H](O[C@H]7[C@H](O)[C@@H](O)[C@@H](O[C@H]8[C@H](O)[C@@H](O)[C@@H](O[C@H]1[C@H](O)[C@H]2O)O[C@@H]8CO)O[C@@H]7CO)O[C@@H]6CO)O[C@@H]5CO)O[C@@H]4CO)O[C@@H]3CO
2 | 7.4% | 30000 L/mol | NC(CCC(=O)Nc1cccc2ccccc12)C(=O)N1CCNCCNCCNCC1 (stereo not drawn)
